The values that follow come from article PMC12615518, “Discovery of CRBN-recruiting PROTAC degraders of the METTL3-METTL14 complex” (Medicinal Chemistry Research, 2025).

Like-named read-outs stand apart in the source and are kept apart here.

Test [1] concerns METTL3. On the set-up: method as in PMID 32159918. The settings on record: read-out: IC50 METTL3 activity, reader-based HTRF assay; cited from earlier work.
The target of test [2] is METTL3 (Homo sapiens, UniProt Q86U44). The test can be described thus: Immunoblotting (Western blot) degradation of METTL3 in MV4-11 cells. It is filed as cell-based. The arrangement: Following treatment, total cellular proteins were extracted using RIPA buffer; endogenous in cells; host or cells: MV4-11 (MV4.11) human AML cells, ATCC. The settings on record: MV4-11 cells, 24 h. As to the method:
(§1) All cell lines were maintained under standard conditions in a humidified atmosphere at 37 °C with 5% CO₂.
(§2) Western Blot Analysis: Following treatment, total cellular proteins were extracted using RIPA buffer (Auragene, Changsha, China). […] After washing, membranes were incubated with horseradish peroxidase (HRP)-conjugated secondary antibodies (anti-rabbit or anti-mouse IgG; 1:5000) for 2 hours at room temperature. Protein bands were visualized using an enhanced chemiluminescence (ECL) detection kit (Amersham Pharmacia), following the manufacturer's protocol. Band intensities were quantified using ImageJ software and normalized to ACTIN as a loading control. Data was analyzed using GraphPad Prism 9.

Test [3] has as its target T1, METTL14 (Homo sapiens, UniProt Q9HCE5).
T1 construct: Following treatment, total cellular proteins were extracted using RIPA buffer; endogenous in cells; host or cells: MV4-11 (MV4.11) human AML cells, ATCC
The test can be described thus: Immunoblotting (Western blot) degradation of METTL14 in MV4-11 cells. In kind it is cell-based. Particulars: MV4-11 cells, 24 h. As to the method: as §1, §2

Test [4] concerns METTL3. The arrangement: method as in PMID 34431664. Particulars: read-out: IC50 METTL3 inhibition, enzyme-based assays; cited from earlier work.
Test [5] concerns METTL3/14. On the set-up: method as in PMID 33902106. The settings on record: read-out: IC50 METTL3/14 catalytic activity inhibition; cited from earlier work.
Test [6] has as its system primary mouse MLL-AF9/Flt3^Itd/+ model. On the set-up: method as in PMID 33902106. Particulars: cited from earlier work.
The subject of test [7] is human AML patient-derived xenografts (PDX) models. On the set-up: method as in PMID 33902106. Particulars: cited from earlier work.
The target in test [8] is METTL3/14. The arrangement: method as in PMID 33902106. Particulars: read-out: METTL3/14 binding affinity (Kd); cited from earlier work.

METTL3 (Homo sapiens, UniProt Q86U44), sequence (Q86U44 2-580 limits assumed): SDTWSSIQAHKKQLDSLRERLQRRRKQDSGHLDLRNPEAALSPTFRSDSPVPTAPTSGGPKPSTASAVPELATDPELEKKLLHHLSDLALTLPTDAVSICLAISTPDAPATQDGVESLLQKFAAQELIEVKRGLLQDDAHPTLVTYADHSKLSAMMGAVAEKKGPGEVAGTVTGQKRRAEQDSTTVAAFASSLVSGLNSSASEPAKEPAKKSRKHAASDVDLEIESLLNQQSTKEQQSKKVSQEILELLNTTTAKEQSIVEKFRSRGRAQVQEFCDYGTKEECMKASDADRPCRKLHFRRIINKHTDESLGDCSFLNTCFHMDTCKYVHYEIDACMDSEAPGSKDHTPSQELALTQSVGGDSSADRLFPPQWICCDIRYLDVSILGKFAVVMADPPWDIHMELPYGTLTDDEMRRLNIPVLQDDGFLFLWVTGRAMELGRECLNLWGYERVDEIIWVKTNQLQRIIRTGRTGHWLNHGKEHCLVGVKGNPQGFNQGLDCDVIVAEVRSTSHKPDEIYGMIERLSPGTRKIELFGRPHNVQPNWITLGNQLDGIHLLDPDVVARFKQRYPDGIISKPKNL
METTL3 (Homo sapiens, UniProt Q86U44), sequence (Q9HCE5 whole entry partner): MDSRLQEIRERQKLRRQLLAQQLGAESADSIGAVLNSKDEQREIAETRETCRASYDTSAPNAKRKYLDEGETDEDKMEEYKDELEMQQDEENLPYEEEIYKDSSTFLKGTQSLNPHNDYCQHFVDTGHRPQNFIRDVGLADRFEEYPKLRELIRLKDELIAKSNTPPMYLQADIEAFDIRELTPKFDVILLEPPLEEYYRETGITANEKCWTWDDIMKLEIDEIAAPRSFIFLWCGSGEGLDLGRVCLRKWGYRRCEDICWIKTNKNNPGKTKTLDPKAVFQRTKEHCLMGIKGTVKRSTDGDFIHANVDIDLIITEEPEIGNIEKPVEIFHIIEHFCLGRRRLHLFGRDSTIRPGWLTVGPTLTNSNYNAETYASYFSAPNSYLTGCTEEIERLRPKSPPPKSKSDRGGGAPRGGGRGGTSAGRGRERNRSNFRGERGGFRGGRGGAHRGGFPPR
T1 sequence (Q9HCE5 whole entry): as the sequence (Q9HCE5 whole entry partner) above
T1 sequence (Q86U44 2-580 partner): as the sequence (Q86U44 2-580 limits assumed) above

Take `Nc1ncnc2c1ncn2[C@@H]1O[C@H](C(=O)NCCCCN2CCCC2)[C@@H](O)[C@H]1O` [Compound 1]: the IC50 in test [1] is 8700 nM.
Consider `CNc1cc(N2CCC3(CC2)CN(c2cc(F)c(CN4CCC(C)(C(=O)NCCCCCCCCCCNc5cccc6c5C(=O)N(C5CCC(=O)NC5=O)C6=O)CC4)cc2F)CC(=O)N3)ncn1` (stereo not drawn) [Compound 5d, 1-(2,5-difluoro-4-(9-(6-(methylamino)pyrimidin-4-yl)-2-oxo-1,4,9-triazaspiro[5.5]undecan-4-yl)benzyl)-N-(10-((2-(2,6-dioxopiperidin-3-yl)-1,3-dioxoisoindolin-4-yl)amino)decyl)-4-methylpiperidine-4-carboxamide], for which, in test [2] (0.3 µM, immunoblotting), the “% degradation in MV4-11 cells, 0.3 µM, METTL3” value was found to be 26%. Also, in test [2] (1.0 µM, immunoblotting), the “% degradation in MV4-11 cells, 1.0 µM, METTL3” value is given as 3%. Moreover, the “% degradation in MV4-11 cells, 0.3 µM, METTL14” value in test [3] (0.3 µM, immunoblotting) is 34%. Also, the “% degradation in MV4-11 cells, 1.0 µM, METTL14” value in test [3] (1.0 µM, immunoblotting) is 21%.
With `CNc1cc(N2CCC3(CC2)CN(c2cc(F)c(CN4CCC(C)(C)CC4)cc2F)CC(=O)N3)ncn1` [UZH2, reference compound], the “degradation of METTL3 at 1 µM (in words)” value in test [2] (1 µM, Fig. 4A right) is on record as “not degraded”. In test [4], the IC50 was 5 nM. Further, the “degradation of METTL14 at 1 µM (in words)” value in test [3] (1 µM, Fig. 4A right) is listed as “not degraded”.
In the case of STM2457, the IC50 in test [5] was 16.9 nM. The anti-leukemic effect entry in test [6] and in test [7] was “anti-leukemic effect” in each case. For the same molecule, the Kd in test [8] is 1.4 nM.
